According to the supplement of paper PMC11061612:

Columns and labels:
Assay in all cases: Bliss excess, mean over the matrix (fraction); higher = more synergy
[1] = test system: Ca-Ski (Cervical Carcinoma)
Procedure, shortened: (§1)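 Cell lines in DMEM/F12 or RPMI with 10% FBS were plated in 1536-well plates, held 24 hours at 37°C, 5% CO2, then given two-drug dose matrices for 72 hours (DMSO typically 0.2%). Viability was read by CellTiter-Glo 2.0 luminescence and scaled as inhibition from 0 (vehicle wells) to 1 (blank wells). Combination Emax is the second-highest inhibition in the matrix; Bliss excess is observed combination effect minus expected EA + EB − EA·EB, EA and EB being single-agent effects.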

[2] = test system: ALL-SIL (T-Lymphoblastic Leukemia)
Procedure, shortened: as §1

[3] = test system: NCI-H522 (Lung Adenocarcinoma)
Procedure, shortened: as §1

EW-1 (Ewing's Sarcoma) = test system: EW-1 (Ewing's Sarcoma)
Procedure, shortened: as §1

[4] = test system: HCC2998 (Colorectal Carcinoma)
Procedure, shortened: as §1

[5] = test system: KOPN-8 (B-Lymphoblastic Leukemia)
Procedure, shortened: as §1

[6] = test system: LC-1-sq (Squamous Cell Lung Carcinoma)
Procedure, shortened: as §1

[7] = test system: CADO-ES1 (Ewing's Sarcoma)
Procedure, shortened: as §1

[8] = test system: MDA-MB-453 (Breast Carcinoma)
Procedure, shortened: as §1

[9] = test system: HAL-01 (B-Lymphoblastic Leukemia)
Procedure, shortened: as §1

[10] = test system: NCI-H2122 (Lung Adenocarcinoma)
Procedure, shortened: as §1

[11] = test system: EFO-21 (Ovarian Carcinoma)
Procedure, shortened: as §1

SK-N-AS (Neuroblastoma) = test system: SK-N-AS (Neuroblastoma)
Procedure, shortened: as §1

[12] = test system: OACM5-1 (Esophageal Adenocarcinoma)
Procedure, shortened: as §1

[13] = test system: NCI-H1838 (Lung Adenocarcinoma)
Procedure, shortened: as §1

[14] = test system: OE33 (Esophageal Adenocarcinoma)
Procedure, shortened: as §1

[15] = test system: DU-145 (Prostate Carcinoma)
Procedure, shortened: as §1

[16] = test system: ME-180 (Cervical Carcinoma)
Procedure, shortened: as §1

[17] = test system: SW982 (Other Solid Carcinomas)
Procedure, shortened: as §1

[18] = test system: MOG-G-UVW (Low Grade Glioma)
Procedure, shortened: as §1

Row | SMILES | Bliss excess [1] | Bliss excess [2] | Bliss excess [3] | Bliss excess (EW-1 (Ewing's Sarcoma)) | Bliss excess [4] | Bliss excess [5] | Bliss excess [6] | Bliss excess [7] | Bliss excess [8] | Bliss excess [9] | Bliss excess [10] | Bliss excess [11] | Bliss excess (SK-N-AS (Neuroblastoma)) | Bliss excess [12] | Bliss excess [13] | Bliss excess [14] | Bliss excess [15] | Bliss excess [16] | Bliss excess [17] | Bliss excess [18]
1 | COc1cccc(OCCCN)c1-c1cc(Nc2cnc(C#N)cn2)n[nH]1 [Prexasertib] + Cc1cc2ncnn2cc1Nc1ncc2c(n1)n(C1CCOCC1)c(=O)n2C [AZD7648] (first compound max 1 µM, 7x7, partner max 10 µM) | -0.0159 | -0.0258 | -0.0005 | -0.0217 | -0.0053 | 0.0298 | 0.0099 | -0.0261 | -0.0143 | -0.0257 | -0.0289 | -0.0446 | -0.0015 | -0.026 | -0.0126 | 0.0061 | -0.0381 | 0.0041 | -0.0355 | -0.0264
2 | COc1cccc(OCCCN)c1-c1cc(Nc2cnc(C#N)cn2)n[nH]1 [Prexasertib] + O=C(c1cc(Cc2n[nH]c(=O)c3ccccc23)ccc1F)N1CCN(C(=O)C2CC2)CC1 [Olaparib] (first compound max 1 µM, 7x7, partner max 10 µM) | -0.0243 | -0.0222 | -0.0491 | -0.0144 | -0.0432 | -0.0105 | -0.0468 | -0.0315 | -0.128 | 0.0006 | -0.0471 | -0.1 | -0.0412 | -0.054 | -0.153 | -0.0925 | -0.0144 | -0.0511 | -0.103 | -0.0035
3 | CCc1c2c(nc3ccc(O)cc13)-c1cc3c(c(=O)n1C2)COC(=O)[C@]3(O)CC [SN-38] + CN(C)CCCOc1ccc(-c2ccc3ncc4c(c3c2)n(C2CCOCC2)c(=O)n4C)cn1 [AZD0156] (first compound max 0.3 µM, 7x7, partner max 1 µM) | 0.0459 | -0.0475 | 0.0294 | 0.0608 | 0.253 | 0.0362 | 0.0912 | 0.0718 | -0.0505 | 0.0451 | 0.151 | -0.0125 | -0.0061 | -0.0642 | -0.0741 | 0.0575 | -0.109 | -0.0259 | -0.0208 | 0.0727
4 | Cn1cnc2c(F)c(Nc3ccc(Br)cc3Cl)c(C(=O)NOCCO)cc21 [Selumetinib] + C=CCn1c(=O)c2cnc(Nc3ccc(N4CCN(C)CC4)cc3)nc2n1-c1cccc(C(C)(C)O)n1 [AZD1775] (first compound max 10 µM, partner max 1 µM) | 0.0199 | -0.0934 | -0.059 | -0.0347 | -0.0267 | 0.0681 | -0.095 | -0.114 | -0.0065 | 0.0056 | 0.0552 | -0.0834 | 0.0024 | -0.0964 | -0.0506 | -0.0911 | 0.0039 | -0.071 | -0.0112 | -0.0144
5 | Cn1cnc2c(F)c(Nc3ccc(Br)cc3Cl)c(C(=O)NOCCO)cc21 [Selumetinib] + CC(C)n1c(=O)n(C)c2cnc3cc(F)c(-c4ccc(OCCCN5CCCCC5)nc4)cc3c21 [AZD1390] (first compound max 10 µM, 7x7, partner max 0.3 µM) | -0.0032 | -0.0164 | -0.0483 | -0.0419 | 0.0076 | 0.0131 | -0.0465 | -0.0446 | -0.0148 | 0.0741 | -0.0099 | -0.026 | -0.019 | -0.0273 | -0.0514 | -0.0277 | -0.0312 | -0.0521 | -0.0484 | 0.0397
6 | Cn1cnc2c(F)c(Nc3ccc(Br)cc3Cl)c(C(=O)NOCCO)cc21 [Selumetinib] + CCN(CCO)CCCOc1ccc2c(Nc3cc(CC(=O)Nc4cccc(F)c4)[nH]n3)ncnc2c1 [AZD2811] (first compound max 10 µM, 7x7, partner max 1 µM) | 0.0553 | -0.0031 | -0.0359 | 0.0332 | -0.019 | 0.0253 | -0.0324 | -0.0515 | -0.026 | 0.0385 | -0.0258 | -0.0877 | -0.0108 | 0.0404 | -0.0363 | -0.0246 | -0.0077 | -0.0346 | -0.0933 | 0.0279
7 | Cn1cnc2c(F)c(Nc3ccc(Br)cc3Cl)c(C(=O)NOCCO)cc21 [Selumetinib] + C[C@@H]1COCCN1C2=NC(=NC(=C2)C3(CC3)[S@](=N)(=O)C)C4=C5C=CNC5=NC=C4 [AZD6738] (first compound max 10 µM, 7x7, partner max 10 µM) | 0.0396 | 0.0106 | -0.0653 | 0.0014 | 0.0464 | -0.154 | 0.0238 | -0.0031 | -0.05 | -0.0541 | 0.0539 | -0.0192 | -0.0048 | -0.0096 | -0.101 | -0.018 | -0.0441 | -0.0115 | -0.0499 | -0.0662
